Patent publication US20240368173A1, “TRICYCLIC GPR65 MODULATORS” (PATHIOS THERAPEUTICS LIMITED, priority 2021, published 2024)
Like-named read-outs stand apart in the source and are kept apart here.

Molecular target: human recombinant GPR65 (Homo sapiens, UniProt Q8IYL9)
Test: Human GPR65 cAMP HTRF antagonist assay
Format: cell-based
Procedure, shortened: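 Antagonism measured as suppression of the cAMP rise when pH is dropped to 7.2 (control wells pH 7.9) in 1321N1 cells stably carrying human GPR65. Cells in KRH with 1 mM IBMX and 200 μM EDTA saw compound 30 min, then acid stimulation 30 min; HTRF cAMP detection, normalised, 4-parameter logistic IC50.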

[1] = 1321N1-hrGPR65 cells, cAMP HTRF, assay pH 7.2, read-out: hGPR65 IC50 (Activity of selected compounds according to the invention)

Chain of human recombinant GPR65 (Q8IYL9 whole entry): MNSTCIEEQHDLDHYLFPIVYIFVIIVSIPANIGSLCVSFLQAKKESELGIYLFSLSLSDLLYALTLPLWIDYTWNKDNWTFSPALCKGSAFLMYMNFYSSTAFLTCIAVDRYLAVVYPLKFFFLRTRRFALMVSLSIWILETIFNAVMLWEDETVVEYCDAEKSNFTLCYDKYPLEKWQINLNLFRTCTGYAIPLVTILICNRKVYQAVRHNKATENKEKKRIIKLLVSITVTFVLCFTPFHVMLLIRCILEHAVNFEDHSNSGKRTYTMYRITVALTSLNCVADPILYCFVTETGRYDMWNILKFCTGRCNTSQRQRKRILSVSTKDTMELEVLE

Compound | IC50 [nM] | IC50 [1] [nM]
C=C1c2c(ccnc2F)C2CCC1N2C(=O)Nc1cc(Cl)c(Cl)cc1F (racemic) [Compound 154, (±)—N-(4,5-Dichloro-2-fluorophenyl)-1-fluoro-9-methylene-6,7,8,9-tetrahydro-5H-5,8-epiminocyclohepta[c]pyridine-10-carboxamide] | < 500 | –
O=C(Nc1cc(Cl)c(-c2ccccc2)cc1F)N1[C@H]2CC[C@@H]1c1c[nH]c(=O)cc1C2 [Compound 251, (6S,9R)-N-(2-Chloro-5-fluoro-[1,1′-biphenyl]-4-yl)-3-oxo-3,5,6,7,8,9-hexahydro-2H-6,9-epiminocyclohepta[c]pyridine-10-carboxamide] | < 500 | –
O=C(Nc1cc(Cl)c(Oc2ccc(F)nc2)cc1F)N1[C@H]2CC[C@@H]1c1n[nH]c(=O)cc1C2 [Compound 225, (6S,9R)—N-(5-Chloro-2-fluoro-4-((6-fluoropyridin-3-yl)oxy)phenyl)-3-oxo-3,5,6,7,8,9-hexahydro-2H-6,9-epiminocyclohepta[c]pyridazine-10-carboxamide] | < 500 | –
COc1cc(-c2cc(F)c(NC(=O)N3[C@H]4CC[C@@H]3c3c[nH]c(=O)cc3C4)cc2Cl)ccn1 [Compound 265, (6S,9R)-N-(5-Chloro-2-fluoro-4-(2-methoxypyridin-4-yl)phenyl)-3-oxo-3,5,6,7,8,9-hexahydro-2H-6,9-epiminocyclohepta[c]pyridine-10-carboxamide] | < 500 | –
Cc1nc2cc(-c3cc(F)c(NC(=O)N4[C@H]5CC[C@@H]4c4n[nH]c(=O)cc4C5)cc3Cl)ccc2o1 [Compound 234, (6S,9R)-N-(5-Chloro-2-fluoro-4-(2-methylbenzo[d]oxazol-5-yl)phenyl)-3-oxo-3,5,6,7,8,9-hexahydro-2H-6,9-epiminocyclohepta[c]pyridazine-10-carboxamide] | < 500 | –
O=C(Nc1cc(Cl)c(-c2ncco2)cc1F)N1[C@H]2CC[C@@H]1c1n[nH]c(=O)cc1C2 [Compound 181, (6S,9R)-N-(5-Chloro-2-fluoro-4-(oxazol-2-yl)phenyl)-3-oxo-3,5,6,7,8,9-hexahydro-2H-6,9-epiminocyclohepta[c]pyridazine-10-carboxamide] | 500 to 5000 | –
COCCOc1ccc(-c2cc(F)c(NC(=O)N3[C@H]4CC[C@@H]3c3n[nH]c(=O)cc3C4)cc2Cl)cn1 [Compound 303, (6S,9R)-N-(5-Chloro-2-fluoro-4-(6-(2-methoxyethoxy)pyridin-3-yl)phenyl)-3-oxo-3,5,6,7,8,9-hexahydro-2H-6,9-epiminocyclohepta[c]pyridazine-10-carboxamide] | < 500 | –
O=C(Nc1cc(Cl)c(-c2ccccc2)cc1F)N1[C@H]2CC[C@@H]1c1n[nH]c(=O)cc1C2 [Compound 113, (6S,9R)-N-(2-Chloro-5-fluoro-[1,1′-biphenyl]-4-yl)-3-oxo-3,5,6,7,8,9-hexahydro-2H-6,9-epiminocyclohepta[c]pyridazine-10-carboxamide] | < 500 | –
O=C(Nc1cc(Br)c(C(F)(F)F)cc1F)N1C2CCC1c1c[nH]c(=O)nc1C2 (racemic) [Compound 17, (±)-N-(5-bromo-2-fluoro-4-(trifluoromethyl)phenyl)-2-oxo-3,5,6,7,8,9-hexahydro-2H-5,8-epiminocyclohepta[d]pyrimidine-10-carboxamide] | < 500 | –
O=C(Nc1cc(Cl)c(-c2cncc(CO)c2)cc1F)N1[C@H]2CC[C@@H]1c1n[nH]c(=O)cc1C2 [Compound 128, (6S,9R)—N-(5-Chloro-2-fluoro-4-(5-(hydroxymethyl)pyridin-3-yl)phenyl)-3-oxo-3,5,6,7,8,9-hexahydro-2H-6,9-epiminocyclohepta[c]pyridazine-10-carboxamide] | – | 500 to 5000
O=C(Nc1cc(Cl)c(-c2cccnc2F)cc1F)N1[C@H]2CC[C@@H]1c1n[nH]c(=O)cc1C2 [Compound 115, (6S,9R)—N-(5-Chloro-2-fluoro-4-(2-fluoropyridin-3-yl)phenyl)-3-oxo-3,5,6,7,8,9-hexahydro-2H-6,9-epiminocyclohepta[c]pyridazine-10-carboxamide] | < 500 | –
O=C(Nc1cc(I)c(Cl)cc1F)N1[C@H]2CC[C@@H]1c1ccnc(F)c1C2 [Compound 78, (5R,8S)-N-(4-Chloro-2-fluoro-5-iodophenyl)-1-fluoro-6,7,8,9-tetrahydro-5H-5,8-epiminocyclohepta[c]pyridine-10-carboxamide] | – | 500 to 5000
O=C(Nc1cc(Cl)c(C(F)(F)F)cc1F)N1[C@@H]2CC[C@H]1c1c[nH]c(=O)nc1C2 [Compound 25, (5S,8R)-N-(5-Chloro-2-fluoro-4-(trifluoromethyl)phenyl)-2-oxo-3,5,6,7,8,9-hexahydro-2H-5,8-epiminocyclohepta[d]pyrimidine-10-carboxamide] | – | 500 to 5000
O=C(Nc1cc(Cl)c(Cl)cc1F)N1[C@H]2CC[C@@H]1c1n[nH]c(=O)cc1C2 [Compound 20, (6S,9R)-N-(4,5-Dichloro-2-fluorophenyl)-3-oxo-3,5,6,7,8,9-hexahydro-2H-6,9-epiminocyclohepta[c]pyridazine-10-carboxamide] | < 500 | –
O=C(Nc1cc(Cl)c(-c2ccc3nonc3n2)cc1F)N1[C@H]2CC[C@@H]1c1n[nH]c(=O)cc1C2 [Compound 314, (6S,9R)-N-(4-([1,2,5]Oxadiazolo[3,4-b]pyridin-5-yl)-5-chloro-2-fluorophenyl)-3-oxo-3,5,6,7,8,9-hexahydro-2H-6,9-epiminocyclohepta[c]pyridazine-10-carboxamide] | < 500 | –
COCc1ccc(-c2cc(F)c(NC(=O)N3[C@H]4CC[C@@H]3c3n[nH]c(=O)cc3C4)cc2Cl)cn1 [Compound 278, (6S,9R)-N-(5-Chloro-2-fluoro-4-(6-(methoxymethyl)pyridin-3-yl)phenyl)-3-oxo-3,5,6,7,8,9-hexahydro-2H-6,9-epiminocyclohepta[c]pyridazine-10-carboxamide] | < 500 | –
O=C(Nc1cc(Cl)c(-c2cnc3nonc3c2)cc1F)N1[C@H]2CC[C@@H]1c1ccnc(F)c1C2 [Compound 190, (5R,8S)-N-(4-([1,2,5]Oxadiazolo[3,4-b]pyridin-6-yl)-5-chloro-2-fluorophenyl)-1-fluoro-6,7,8,9-tetrahydro-5H-5,8-epiminocyclohepta[c]pyridine-10-carboxamide] | < 500 | –
O=C(Nc1cc(Cl)c(-c2cnc(F)nc2)cc1F)N1[C@H]2CC[C@@H]1c1n[nH]c(=O)cc1C2 [Compound 178, (6S,9R)-N-(5-Chloro-2-fluoro-4-(2-fluoropyrimidin-5-yl)phenyl)-3-oxo-3,5,6,7,8,9-hexahydro-2H-6,9-epiminocyclohepta[c]pyridazine-10-carboxamide] | < 500 | –
O=C(Nc1cc(Br)c(C(F)(F)F)cc1F)N1[C@@H]2CC[C@H]1c1c[nH]c(=O)nc1C2 [Compound 29, (5S,8R)-N-(5-Bromo-2-fluoro-4-(trifluoromethyl)phenyl)-2-oxo-3,5,6,7,8,9-hexahydro-2H-5,8-epiminocyclohepta[d]pyrimidine-10-carboxamide] | – | > 5000
O=C(Nc1cc(Cl)c(-c2ccccc2)cc1F)N1[C@H]2CC[C@@H]1c1ccnc(F)c1C2 [Compound 250, (5R,8S)-N-(2-Chloro-5-fluoro-[1,1′-biphenyl]-4-yl)-1-fluoro-6,7,8,9-tetrahydro-5H-5,8-epiminocyclohepta[c]pyridine-10-carboxamide] | < 500 | –
O=C(Nc1ccc(Br)c(Cl)c1)N1[C@@H]2CC[C@H]1c1n[nH]c(=O)cc1C2 [Compound 40, (6R,9S)-N-(4-Bromo-3-chlorophenyl)-3-oxo-3,5,6,7,8,9-hexahydro-2H-6,9-epiminocyclohepta[c]pyridazine-10-carboxamide] | – | > 5000
